Reference: patent US9725490B2, “ERAP1-derived peptide and use thereof” (TOKUSHIMA UNIVERSITY, priority 2011, dated 2017)

Tests used:
Format in all cases: cell-based, human
[1] = tested on: MCF-7 cells; experiment: Cell cycle FACS analysis, MCF-7; details: 10 μM ERAP1-peptide and/or 10 nM tamoxifen, 10 nM E2 24 hours
Procedure: FIG. 6-2 is a diagram illustrating that ERAP1-peptide treatment suppresses ERα-dependent cell proliferation of breast cancer cell lines. […] MCF-7 cells were treated with 10 μM ERAP1-peptide or 10 μM tamoxifen. Then, immediately, the cells were stimulated with 10 nM E2 for 24 hours. After the immobilization, the cells were stained with propidium iodide, and analyzed by flow cytometry.
FIG. 19 is a diagram illustrating the results of FACS analysis showing the effects of concomitant use of the ERAP1-peptide and tamoxifen on the cell cycle.
The cells were fixed with cold 70% ethanol, and stained with 20 μg/ml propidium iodide (Sigma) and 1 mg/ml ribonuclease A (Sigma), and analyzed with FACSCalibur (B D, Franklin Lakes, N.J., USA). The cell cycle was evaluated using CellQuest software (BD).
MCF-7 cells were treated with 10 μM ERAP1-peptide and/or 10 nM tamoxifen. Then, immediately, the cells were stimulated with 10 nM E2 for 24 hours. After the immobilization, the cells were stained with propidium iodide, and analyzed by flow cytometry.

[2] = tested on: MCF-7 cells; experiment: MTT assay of tamoxifen with ERAP1 knockdown; details: 10 μM tamoxifen, 96 hours, 1 μM E2
Procedure: (§1) FIG. 17 is a diagram illustrating the influence of ERAP1 knockdown on the suppression effect on proliferation of breast cancer cells by tamoxifen.
The inhibition effect of tamoxifen when ERAP1 was knocked down by siRNA method was evaluated with MTT assay. The sequences of si-ERAP1, and si-control (si-EGFP) and the method for the experiment were in accordance with the report of Kim et, al. (Cancer Science, 2009, 100; 1468-78) MCF-7 cells were seeded in […] on a 48-well plate, and stimulated with 1 μM E2, and after 24 hours, treated with si-ERAP1 or si-control. After 24 hours, the cells were treated with 10 μM tamoxifen and the number of living cells was evaluated with MTT assay after 96 hours.

[3] = tested on: ERE reporter activity; experiment: ERE-luciferase assay of tamoxifen with ERAP1 knockdown; details: 10 μM tamoxifen, 96 hours, 1 μM E2
Procedure: as §1
In addition, the inhibition effect of tamoxifen when ERAP1 was knocked down by siRNA method was evaluated with ERE-luciferase assay. MCF-7 cells were seeded in 2×10^4/well on a 96-well plate, and were temporarily transfected with ERE-luciferase reporter. Then, the cells were stimulated with 1 μM E2, and after 24 hours, treated with si-ERAP1 or si-control. After 24 hours, the cells were treated with 10 μM tamoxifen and after 96 hours, ERE luciferase activity was measured.

[4] = tested on: ERAP1 expression; experiment: ERAP1 expression, quantitative RT-PCR and Western, MCF-7; details: tamoxifen, 10 nM E2 24 hours
[5] = tested on: Akt, MAPK and ERα phosphorylation; experiment: Phosphorylation of Akt, MAPK and ERα in tamoxifen-resistant MCF-7 cells; details: Tam-R MCF-7, tamoxifen alone or tamoxifen and E2
Procedure: FIG. 14 is a diagram illustrating the suppression effect of the ERAP1-peptide on tamoxifen-resistant MCF-7 cells. […] The tamoxifen-resistant MCF-7 cells were treated with the ERAP1-peptide in each concentration (0, 5 and 10 μM). Then, immediately, the cells were stimulated with 10 nM E2 for 24 hours.
MCF-7 cells and tamoxifen-resistant MCF-7 cells were seeded in 1×10^5/well in DMEM/F12 culture medium containing phenol red on a 24-well plate and stood in a CO2 incubator for 24 hours. Then, the culture medium was exchanged with DMEM/F12 culture medium containing 10% FBS, 1% penicillin/streptomycin and 1 μM tamoxifen, and not containing phenol red, and the cells were further pre-cultured for 24 hours. The supernatant was removed, and then 180 μl of […] ERAP1-peptide was added (final concentration: 10 μM), and subsequently 20 μl of 100 nM E2 was added (final concentration: 10 nM), and the mixture was reacted for 24 hours. The reaction solution was removed, and then 100 μl of SDS-sample buffer was added and the cells were lysed. The cells were subjected to boiling treatment at 95° C. for 5 minutes, and subjected to polyacrylic amide electrophoresis. Phosphorylations of Akt and MAPK were detected with anti-phosphorylation Akt (Ser473) (587F11) and anti-phosphorylation p44/42 MAP Kinase (Thr202/Tyr204) antibodies, and phosphorylation of ERα was detected with anti-phosphorylation ERα (Ser104/106), anti-phosphorylation ERα (Ser118), anti-phosphorylation ERα (Ser167), anti-phosphorylation ERα (Ser305) and anti-phosphorylation ERα (Tyr537) antibodies.

## CC/C(=C(\c1ccccc1)c1ccc(OCCN(C)C)cc1)c1ccccc1 [tamoxifen, reference compound]
[1]
  cell cycle: increase of cells having stopped in the G1 phase
[2]
  cell proliferation, siERAP1 versus si-control: the cell proliferation was suppressed more
[3]
  ERE reporter activity, siERAP1 versus si-control: the reporter activity was suppressed more
[4]
  expression of ERAP1, mRNA level and protein level: suppressed depending on the concentration of TAM
[5]
  phosphorylations of Akt and MAPK: accelerated phosphorylations of Akt and MAPK
